Measured values as given in patent US9447095B2, “Pyrimidine derivatives as phosphodiesterase 10 inhibitors (PDE-10)” (PALOBIOFARMA S.L., priority 2013, dated 2016).

Target: Phosphodiesterase 10A (PDE10A) (Homo sapiens (Human), UniProt Q9Y233)
Assay: Phosphodiesterase 10A (PDE10A) activity inhibition test ([3H]cAMP scintillation proximity assay)
Assay type: biochemical
Conditions: dose-response, 1:10 dilutions from 100 μM to 1 nM; [3H]cAMP SPA, 20 minutes at 30° C.; read-out: IC50 PDE10
Procedure: The “analysis of the activity of the enzyme Phosphodiesterase [^3H] cAMP SPA” (Perkin Elmer #7090 TRKQ) kit was used for the study of Phosphodiesterase 10. The kit contains: • Yttrium scintillation proximity assay (SPA) in beads: yttrium silicate in microspheres resuspended pellet in MiliQ water containing 18 mM zinc sulfate. • 10×PDE assay buffer: 500 mM Tris/HCl; 83 mM MgCl2; 17 mM EGTA; pH 7.5. • Tracer [^3H] cAMP: substrate for enzymatic reaction.
The test is based on the preferential binding of linear nucleotides to the SPA beads in the presence of zinc sulfate, with respect to the binding of cyclic nucleotides, which is almost imperceptible.
The binding of the radioactively labeled product to the beads brings the isotope to a proximity enough to allow the radioactive tritium radiation to excite the flashing part in the bead. Any independent radiolabel is not sufficiently close to the flashing part to allow the transfer of energy, so that no signal is generated. In addition, as the cyclic substrate is not effectively linked with the bead, the generated background signal is very low.
The binding of the linear nucleotides with the bead is based on a complex chelation mechanism. Zinc sulfate in the microsphere solution improves the binding between the bead and […].
Phosphodiesterase 10A (PDE10A) Activity Inhibition Test
The test is performed in 96-well Flexiplates (Perkin Elmer #1450-401) with duplicates for each sample. Positive and negative controls are also required in each analyzed plate to evaluate the activity of the enzyme.
The inhibition values for each of the compounds are measured in duplicate at a concentration of 10 μM and the plate is incubated for 20 minutes at 30° C. and then 50 μL of the kit beads are then added “Phosphodiesterase SPA beads” (Perkin-Elmer #RPNQ0150).
The plate is stirred for 1 hour at room temperature. Then beads are allowed to stand for one hour before reading the activity in a beta scintillation counter.
To build a dose-response curve, in order to calculate the potency of inhibition (expressed as IC50) for PDE10A, a series of 1:10 dilutions in test in 1× buffer from 100 μM to 1 nM for each compound were carried out.

Phosphodiesterase 10A (PDE10A), sequence (Q9Y233 whole entry, species assumed): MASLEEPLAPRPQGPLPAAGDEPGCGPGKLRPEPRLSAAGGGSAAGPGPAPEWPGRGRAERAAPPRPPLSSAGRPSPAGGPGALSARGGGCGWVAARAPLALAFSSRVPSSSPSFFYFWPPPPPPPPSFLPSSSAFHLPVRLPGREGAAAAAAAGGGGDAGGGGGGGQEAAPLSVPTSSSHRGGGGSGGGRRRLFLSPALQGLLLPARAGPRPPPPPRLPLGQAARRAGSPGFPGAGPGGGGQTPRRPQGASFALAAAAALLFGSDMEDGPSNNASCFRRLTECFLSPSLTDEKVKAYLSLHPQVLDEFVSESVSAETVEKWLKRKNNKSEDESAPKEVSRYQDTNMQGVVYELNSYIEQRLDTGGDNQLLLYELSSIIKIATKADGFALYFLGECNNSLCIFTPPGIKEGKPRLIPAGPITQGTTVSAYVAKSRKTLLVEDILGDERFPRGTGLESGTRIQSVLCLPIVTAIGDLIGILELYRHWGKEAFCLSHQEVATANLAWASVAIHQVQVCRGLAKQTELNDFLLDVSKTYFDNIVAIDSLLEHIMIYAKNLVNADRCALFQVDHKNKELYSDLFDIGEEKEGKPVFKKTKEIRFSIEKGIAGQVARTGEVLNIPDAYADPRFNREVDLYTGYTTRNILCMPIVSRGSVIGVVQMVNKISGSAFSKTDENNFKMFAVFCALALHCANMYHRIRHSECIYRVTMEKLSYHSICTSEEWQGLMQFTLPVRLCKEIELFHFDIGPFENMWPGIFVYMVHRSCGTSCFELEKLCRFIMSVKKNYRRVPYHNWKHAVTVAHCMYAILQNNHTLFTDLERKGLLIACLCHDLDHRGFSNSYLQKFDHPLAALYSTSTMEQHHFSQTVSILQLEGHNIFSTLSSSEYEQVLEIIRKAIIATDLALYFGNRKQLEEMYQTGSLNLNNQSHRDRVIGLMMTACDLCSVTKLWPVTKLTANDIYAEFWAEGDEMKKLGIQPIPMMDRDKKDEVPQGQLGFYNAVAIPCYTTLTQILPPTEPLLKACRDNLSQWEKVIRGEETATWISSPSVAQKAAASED

Structure (SMILES)	IC50 [nM]
C#CCNc1nc(-n2ncc3ccccc32)nc(N)c1Br [Example 3, 5-bromo-2-(1H-indazol-1-yl)-N^4-(prop-2-ynyl)pyrimidine-4,6-diamine]	40.9
Cc1ncsc1CNc1nc(-n2cc(-c3cnccn3)cn2)nc(N)c1Br [Example 29, 5-bromo-N^4-[(4-methylthiazol-5-yl)methyl]-2-[4-(pyrazin-2-yl)-1H-pyrazol-1-yl]pyrimidine-4,6-diamine]	16.5
Cn1cc(CNc2nc(-n3ncc4ccccc43)nc(N)c2Br)cn1 [Example 8, 5-bromo-2-(1H-indazol-1-yl)-N^4-[(1-methyl-1H-pyrazol-4-yl)methyl]pyrimidine-4,6-diamine]	74.1
C#CCNc1nc(-n2cc(-c3ccccn3)cn2)nc(N)c1Br [Example 17, 5-bromo-N^4-(prop-2-ynyl)-2-[4-(pyridin-2-yl)-1H-pyrazol-1-yl]pyrimidine-4,6-diamine]	18
Nc1nc(-n2cc(-c3ccc4ccccc4n3)cn2)nc(NC2CCOCC2)c1Br [Example 23, 5-bromo-N^4-(tetrahydro-2H-pyran-4-yl)-2-[4-(quinolin-2-yl)-1H-pyrazol-1-yl]pyrimidine-4,6-diamine]	9.6
Nc1nc(-n2ncc3ccccc32)nc(NCc2cncs2)c1Br [Example 9, 5-bromo-2-(1H-indazol-1-yl)-N^4-[(thiazol-5-yl)methyl]pyrimidine-4,6-diamine]	1.6
Nc1nc(-n2cc(-c3ccccn3)cn2)nc(NCc2cncs2)c1Br [Example 20, 5-bromo-2-[4-(pyridin-2-yl)-1H-pyrazol-1-yl]-N^4-[(thiazol-5-yl)methyl]pyrimidine-4,6-diamine]	7
Nc1nc(-n2ncc3ccccc32)nc(NC2CCOCC2)c1Br [Example 7, 5-bromo-N^4-(tetrahydro-2H-pyran-4-yl)-2-(1H-indazol-1-yl)pyrimidine-4,6-diamine]	21.9
Cc1ncsc1CNc1nc(-n2ncc3ccccc32)nc(N)c1Br [Example 10, 5-bromo-2-(1H-indazol-1-yl)-N^4-[(4-methylthiazol-5-yl)methyl]pyrimidine-4,6-diamine]	2.9
COCCNc1nc(-n2ncc3ccccc32)nc(N)c1Br [Example 11, 5-bromo-2-(1H-indazol-1-yl)-N^4-(2-methoxyethyl)pyrimidine-4,6-diamine]	25.9
Cc1nc(CNc2nc(-n3ncc4ccccc43)nc(N)c2Br)cs1 [Example 6, 5-bromo-2-(1H-indazol-1-yl)-N^4-[(2-methylthiazol-4-yl)methyl]pyrimidine-4,6-diamine]	18.8
CCNc1nc(-n2ncc3ccccc32)nc(N)c1Br [Example 2, 5-bromo-N^4-ethyl-2-(1H-indazol-1-yl)pyrimidine-4,6-diamine]	21.9
Nc1nc(-n2ncc3ccccc32)nc(NCC2CC2)c1Br [Example 1, 5-bromo-N^4-(cyclopropylmethyl)-2-(1H-indazol-1-yl)pyrimidine-4,6-diamine]	52.5

More lines, now with the values ahead:

IC50 [nM]	Structure (SMILES)
8.2	CCNc1nc(-n2cc(C(=O)N3CCOCC3)cn2)nc(N)c1Br [Example 53, {1-[4-amino-5-bromo-6-(ethylamino)pyrimidin-2-yl]-1H-pyrazole-4-yl}(morpholino)methanone]
29.3	CCNc1nc(-n2cc(-c3ccncn3)cn2)nc(NCc2nc3ccccc3[nH]2)c1Br [Example 77, N^4-[(1H-benzo[d]imidazol-2-yl)methyl]-5-bromo-N^6-ethyl-2-[4-(pyrimidin-4-yl)-1H-pyrazol-1-yl]pyrimidine-4,6-diamine]
90.7	Nc1nc(-n2cc(-c3ccccn3)cn2)nc(-n2cccn2)c1Br [Example 55, 5-bromo-6-(1H-pyrazol-1-yl)-2-[4-(pyridin-2-yl)-1H-pyrazol-1-yl]pyrimidin-4-amine]
12.4	CCNc1nc(-n2ncc3ccccc32)nc(N)c1Cl [Example 64, 5-chloro-N^4-ethyl-2-(1H-indazol-1-yl)pyrimidine-4,6-diamine]
37	CCNc1nc(-n2cc(-c3ccncn3)cn2)nc(N)c1Br [Example 61, 5-bromo-N^4-ethyl-2-[4-(pyrimidin-4-yl)-1H-pyrazol-1-yl]pyrimidine-4,6-diamine]
3.4	Nc1nc(-n2cncn2)nc(NCC2CC2)c1Br [Example 46, 5-bromo-N^4-(cyclopropylmethyl)-2-(1H-1,2,4-triazol-1-yl)pyrimidine-4,6-diamine]
1.3	Nc1nc(-n2cncn2)nc(NCc2cncs2)c1Br [Example 45, 5-bromo-N^4-[(thiazol-5-yl)methyl]-2-(1H-1,2,4-triazol-1-yl)pyrimidine-4,6-diamine]
0.3	Cc1ncsc1CNc1nc(-n2ncc3cnccc32)nc(N)c1Br [Example 39, 5-bromo-N^4-[(4-methylthiazol-5-yl)methyl]-2-(1H-pyrazolo[4,3-c]pyridin-1-yl)pyrimidine-4,6-diamine]
3.2	C#CCNc1nc(-n2ncc3ccncc32)nc(N)c1Br [Example 33, 5-bromo-N^4-(prop-2-ynyl)-2-(1H-pyrazolo[3,4-c]pyridin-1-yl)pyrimidine-4,6-diamine]
5.8	C#CCNc1nc(-n2cncn2)nc(N)c1Br [Example 42, 5-bromo-N^4-(prop-2-ynyl)-2-(1H-1,2,4-triazol-1-yl)pyrimidine-4,6-diamine]
4.5	C#CCNc1nc(-n2cc(-c3cnccn3)cn2)nc(N)c1Br [Example 30, 5-bromo-N^4-(prop-2-ynyl)-2-[4-(pyrazin-2-yl)-1H-pyrazol-1-yl]pyrimidine-4,6-diamine]
0.4	Cc1ncsc1CNc1nc(-n2ncc3ccncc32)nc(N)c1Br [Example 34, 5-bromo-N^4-[(4-methylthiazol-5-yl)methyl]-2-(1H-pyrazolo[3,4-c]pyridin-1-yl)pyrimidine-4,6-diamine]
29.9	Nc1nc(-n2cc(C(=O)O)cn2)nc(NCC2CC2)c1Br [Example 51, 1-[4-amino-5-bromo-6-(cyclopropylmethylamino)pyrimidin-2-yl]-1H-pyrazole-4-carboxylic acid]
120	C#CCNc1nc(-n2ncc3ccccc32)nc(NCC)c1Br [Example 66, 5-bromo-N^4-ethyl-2-(1H-indazol-1-yl)-N^6-(prop-2-ynyl)pyrimidine-4,6-diamine]
0.06	Nc1nc(-n2ncc3ccncc32)nc(NCc2cncs2)c1Br [Example 36, 5-bromo-2-(1H-pyrazolo[3,4-c]pyridin-1-yl)-N^4-[(thiazol-5-yl)methyl]pyrimidine-4,6-diamine]
1.8	Nc1nc(-n2ncc3ccncc32)nc(NCC2CC2)c1Br [Example 35, 5-bromo-N^4-(cyclopropylmethyl)-2-(1H-pyrazolo[3,4-c]pyridin-1-yl)pyrimidine-4,6-diamine]
0.6	Cc1ncsc1CNc1nc(-n2ncc3ncccc32)nc(N)c1Br [Example 41, 5-bromo-N^4-[(4-methylthiazol-5-yl)methyl]-2-(1H-pyrazolo[4,3-b]pyridin-1-yl)pyrimidine-4,6-diamine]
